Laboratory results reported in ChEMBL document CHEMBL5518235, “Identification of Novel Series of Potent and Selective Relaxin Family Peptide Receptor 1 (RXFP1) Agonists” (J Med Chem, 2024).
Converted amounts (≈) assume the structure as drawn. The source made the active and inactive calls. The rule behind the calls is not given here.

Key:
Relaxin receptor 1 [1] = target: T1, Relaxin receptor 1 (Homo sapiens, UniProt Q9HBX9); experiment: Agonist activity at human RXFP1 expressed in T-Rex-CHO-K1 cells assessed as stimulation of cAMP production incubated for 45 mins by HTRF assay; type: functional, cell-based
T1 sequence (Q9HBX9 whole entry): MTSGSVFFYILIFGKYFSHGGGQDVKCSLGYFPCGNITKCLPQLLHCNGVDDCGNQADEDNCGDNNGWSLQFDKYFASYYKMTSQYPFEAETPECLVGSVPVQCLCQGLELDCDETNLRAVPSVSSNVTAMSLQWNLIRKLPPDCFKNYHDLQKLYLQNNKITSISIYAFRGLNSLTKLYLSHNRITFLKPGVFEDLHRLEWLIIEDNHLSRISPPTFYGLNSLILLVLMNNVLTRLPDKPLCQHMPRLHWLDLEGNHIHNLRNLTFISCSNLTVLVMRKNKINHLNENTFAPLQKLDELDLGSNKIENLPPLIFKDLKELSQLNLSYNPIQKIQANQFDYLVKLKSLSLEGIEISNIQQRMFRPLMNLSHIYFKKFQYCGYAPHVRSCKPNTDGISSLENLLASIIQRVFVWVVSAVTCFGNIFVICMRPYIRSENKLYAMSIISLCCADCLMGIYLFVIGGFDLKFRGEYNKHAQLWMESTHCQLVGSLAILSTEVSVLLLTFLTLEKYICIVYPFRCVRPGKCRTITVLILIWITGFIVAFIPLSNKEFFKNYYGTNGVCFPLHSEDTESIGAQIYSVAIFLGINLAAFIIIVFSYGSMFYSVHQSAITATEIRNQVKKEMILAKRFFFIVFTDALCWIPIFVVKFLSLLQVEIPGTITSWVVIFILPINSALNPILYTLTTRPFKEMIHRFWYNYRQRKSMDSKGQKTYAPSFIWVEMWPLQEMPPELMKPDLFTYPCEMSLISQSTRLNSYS

[2] = Metabolic stability in Han Wistar rat hepatocytes assessed as intrinsic clearance measured per 10^6 cells at 1 uM after 120 mins by LC-MS/MS analysis; type: ADME, cell-based, Hepatocyte; conditions: read-out: CLH
[3] = Metabolic stability in cryopreserved human hepatocytes assessed as intrinsic clearance measured per 10^6 cells at 1 uM after 120 mins by LC-MS/MS analysis; type: ADME, cell-based, Hepatocyte; conditions: for hepatocyte CLint at 1 µM: cryopreserved hepatocytes, read-out: CLH
Relaxin receptor 1 [4] = target: T2, Relaxin receptor 1 (Rattus norvegicus, UniProt Q6R6I6); experiment: Agonist activity at rat RXFP1 expressed in T-Rex-CHO-K1 cells assessed as stimulation of cAMP production incubated for 60 mins by HTRF assay; type: functional, cell-based
T2 sequence (Q6R6I6 whole entry): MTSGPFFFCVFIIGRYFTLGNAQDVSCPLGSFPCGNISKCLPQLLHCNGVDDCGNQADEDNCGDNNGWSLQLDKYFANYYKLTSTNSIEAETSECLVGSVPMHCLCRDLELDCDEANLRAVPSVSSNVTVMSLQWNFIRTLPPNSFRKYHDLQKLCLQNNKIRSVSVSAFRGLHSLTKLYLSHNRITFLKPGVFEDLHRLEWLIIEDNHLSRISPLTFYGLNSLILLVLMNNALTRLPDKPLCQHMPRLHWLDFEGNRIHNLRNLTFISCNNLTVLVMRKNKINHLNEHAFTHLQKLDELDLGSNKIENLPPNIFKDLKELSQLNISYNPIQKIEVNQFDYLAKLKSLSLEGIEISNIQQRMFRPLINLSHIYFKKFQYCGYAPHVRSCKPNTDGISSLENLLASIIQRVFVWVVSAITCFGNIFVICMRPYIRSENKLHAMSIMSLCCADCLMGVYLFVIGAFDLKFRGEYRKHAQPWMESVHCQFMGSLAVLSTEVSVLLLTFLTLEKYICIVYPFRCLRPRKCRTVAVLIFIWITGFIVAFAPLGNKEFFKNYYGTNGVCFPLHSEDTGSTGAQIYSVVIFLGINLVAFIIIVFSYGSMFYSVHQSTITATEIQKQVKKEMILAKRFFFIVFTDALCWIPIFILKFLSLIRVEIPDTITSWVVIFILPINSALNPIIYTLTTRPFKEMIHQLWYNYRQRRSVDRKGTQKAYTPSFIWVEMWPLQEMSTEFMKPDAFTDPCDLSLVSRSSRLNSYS

[5] = Half-life in Han Wistar rat at 0.76 micromol/kg, iv by LC-MS/MS analysis; type: ADME, organism-based; conditions: in vivo, dose 0.76 µmol/kg
[6] = Lipophilicity, logD of the compound in 1-octanol and phosphate buffer at pH 7.4 incubated for 3 hrs by shake flask method based LC/MS/MS analysis; type: physicochemical; conditions: 1-octanol/phosphate buffer, pH 7.4
[7] = Metabolic stability in cryopreserved human hepatocytes assessed as unbound intrinsic clearance measured per 10^6 cells at 1 uM measured after 120 mins by LC-MS/MS analysis; type: ADME, cell-based, Hepatocyte; conditions: 2 h
[8] = Protein binding in rat plasma assessed as free fraction at 5 uM incubated for 18 hrs by equilibrium dialysis based LC-MS/MS analysis; type: ADME, cell-free
[9] = Oral bioavailability in Han Wistar rat at 1.52 micromol/kg by LC-MS/MS analysis; type: ADME, organism-based; conditions: in vivo, 1.52 µmol/kg
[10] = target: T3, Relaxin receptor 1 (Homo sapiens) (UniProt Q9HBX9); experiment: Agonist activity at human RXFP1 expressed in T-Rex-CHO-K1 cells assessed as stimulation of cAMP production by measuring maximal efficacy at 50 uM incubated for 45 mins by HTRF assay relative to control; type: functional, cell-based; conditions: filed as agonist
T3 sequence (whole entry): T1 sequence (Q9HBX9 whole entry)

[11] = Volume of distribution at steady state in Han Wistar rat at 0.76 micromol/kg, iv by LC-MS/MS analysis; type: ADME, organism-based; conditions: in vivo, dose 0.76 µmol/kg, read-out: Vdss
[12] = target: T4, Relaxin receptor 1 (Rattus norvegicus) (UniProt Q6R6I6); experiment: Agonist activity at rat RXFP1 expressed in T-Rex-CHO-K1 cells assessed as stimulation of cAMP production by measuring maximal efficacy incubated for 60 mins by HTRF assay relative to control; type: functional, cell-based; conditions: filed as agonist
T4 sequence (whole entry): T2 sequence (Q6R6I6 whole entry)

[13] = Metabolic stability in Han Wistar rat hepatocytes assessed as unbound intrinsic clearance measured per 10^6 cells at 1 uM after 120 mins by LC-MS/MS analysis; type: ADME, cell-based, Hepatocyte; conditions: 2 h
[14] = Clearance in Han Wistar rat at 0.76 micromol/kg, iv by LC-MS/MS analysis; type: ADME, organism-based; conditions: in vivo, dose 0.76 µmol/kg
[15] = Oral bioavailability in Han Wistar rat at 2.0 micromol/kg by LC-MS/MS analysis; type: ADME, organism-based; conditions: in vivo, 2 µmol/kg
[16] = Metabolic stability in human liver microsomes assessed as unbound fraction at 1 uM incubated for 4 hrs by equilibrium dialysis based LC-MS/MS analysis; type: ADME, Microsome
[17] = Metabolic stability in Han Wistar rat hepatocytes assessed as unbound intrinsic clearance measured […] at 1 uM after 120 mins by LC-MS/MS analysis; type: ADME, cell-based, Hepatocyte; conditions: 2 h
[18] = Metabolic stability in human liver microsomes assessed as unbound intrinsic clearance at 1 uM incubated for 30 mins in presence of NADPH by LC-MS/MS analysis; type: ADME, Microsome; conditions: 0.5 h
[19] = Metabolic stability in human liver microsomes assessed as intrinsic clearance at 1 uM incubated for 30 mins in presence of NADPH by LC-MS/MS analysis; type: ADME, Microsome; conditions: liver microsomes, read-out: CLH
[20] = Kinetic solubility of compound at pH 7.4 incubated for 24 hrs by shake-flask method based LC-MS/MS analysis; type: physicochemical; conditions: buffer, read-out: Kinetic_solubility
[21] = Volume of distribution at steady state in Han Wistar rat at 0.99 micromol/kg, iv by LC-MS/MS analysis; type: ADME, organism-based; conditions: in vivo, dose 0.99 µmol/kg, read-out: Vdss
[22] = Clearance in Han Wistar rat at 0.99 micromol/kg, iv by LC-MS/MS analysis; type: ADME, organism-based; conditions: in vivo, dose 0.99 µmol/kg
[23] = Half-life in Han Wistar rat at 0.99 micromol/kg, iv by LC-MS/MS analysis; type: ADME, organism-based; conditions: in vivo, dose 0.99 µmol/kg
[24] = Metabolic stability in rat hepatocytes assessed as unbound fraction at 1 uM incubated for 4 hrs by equilibrium dialysis based LC-MS/MS analysis; type: ADME, cell-based, Hepatocyte
[25] = target: T4, Relaxin receptor 1 (Rattus norvegicus); experiment: Agonist activity at rat RXFP1 expressed in T-Rex-CHO-K1 cells assessed as stimulation of cAMP production at 40 uM incubated for 45 mins by HTRF assay; type: functional, cell-based
[26] = Cytotoxicity against human HepG2 cells cultured as C3a spheroids assessed as reduction in cell viability; type: toxicity, cell-based
[27] = Cytotoxicity against human HepG2 cells cultured under galactose condition assessed as reduction in cell viability; type: toxicity, cell-based
[28] = target: T4, Relaxin receptor 1 (Rattus norvegicus); experiment: In vivo agonist activity at RXFP1 in Sprague-Dawley rat assessed as hemodynamic effect by measuring increase in heart rate at 3.5 mg/kg, iv administered via bolus followed by 6.0 mg/kg, iv administered via infusion for 3 hrs and measured 1 hrs post washout; type: functional, organism-based
[29] = Half-life in Han Wistar rat at 0.73 micromol/kg, iv by LC-MS/MS analysis; type: ADME, organism-based; conditions: in vivo, dose 0.73 µmol/kg
[30] = target: Voltage-gated inwardly rectifying potassium channel KCNH2 (Homo sapiens, UniProt Q12809); experiment: Inhibition of human ERG by automated electrophysiology recording; type: toxicity
[31] = Cytotoxicity against human HepG2 cells cultured under glucose condition assessed as reduction in cell viability; type: toxicity, cell-based
Bile salt export pump = Bile salt export pump (Homo sapiens, UniProt O95342); experiment: Inhibition of BSEP (unknown origin) by membrane vesicle assay; type: toxicity
[32] = Clearance in Han Wistar rat at 0.73 micromol/kg, iv by LC-MS/MS analysis; type: ADME, organism-based; conditions: in vivo, dose 0.73 µmol/kg
[33] = Volume of distribution at steady state in Han Wistar rat at 0.73 micromol/kg, iv by LC-MS/MS analysis; type: ADME, organism-based; conditions: in vivo, dose 0.73 µmol/kg, read-out: Vdss
[34] = Unbound Cmax in Sprague-Dawley rat at 3.5 mg/kg, iv administered via bolus followed by 6.0 mg/kg, iv administered via infusion for 3 hrs and measured 1 hrs post washout by LC-MS/MS analysis; type: ADME, organism-based; conditions: in vivo
[35] = Cytotoxicity against human THP-1 cells assessed as reduction of cell viability incubated for 48 hrs by resazurin reduction assay; type: toxicity, cell-based
[36] = target: T4, Relaxin receptor 1 (Rattus norvegicus); experiment: In vivo agonist activity at RXFP1 in Sprague-Dawley rat assessed as hemodynamic effect by measuring increase in blood pressure at 3.5 mg/kg, iv administered via bolus followed by 6.0 mg/kg, iv administered via infusion for 3 hrs and measured 1 hrs post washout; type: functional, organism-based

Sequence of Voltage-gated inwardly rectifying potassium channel KCNH2 (Q12809 whole entry): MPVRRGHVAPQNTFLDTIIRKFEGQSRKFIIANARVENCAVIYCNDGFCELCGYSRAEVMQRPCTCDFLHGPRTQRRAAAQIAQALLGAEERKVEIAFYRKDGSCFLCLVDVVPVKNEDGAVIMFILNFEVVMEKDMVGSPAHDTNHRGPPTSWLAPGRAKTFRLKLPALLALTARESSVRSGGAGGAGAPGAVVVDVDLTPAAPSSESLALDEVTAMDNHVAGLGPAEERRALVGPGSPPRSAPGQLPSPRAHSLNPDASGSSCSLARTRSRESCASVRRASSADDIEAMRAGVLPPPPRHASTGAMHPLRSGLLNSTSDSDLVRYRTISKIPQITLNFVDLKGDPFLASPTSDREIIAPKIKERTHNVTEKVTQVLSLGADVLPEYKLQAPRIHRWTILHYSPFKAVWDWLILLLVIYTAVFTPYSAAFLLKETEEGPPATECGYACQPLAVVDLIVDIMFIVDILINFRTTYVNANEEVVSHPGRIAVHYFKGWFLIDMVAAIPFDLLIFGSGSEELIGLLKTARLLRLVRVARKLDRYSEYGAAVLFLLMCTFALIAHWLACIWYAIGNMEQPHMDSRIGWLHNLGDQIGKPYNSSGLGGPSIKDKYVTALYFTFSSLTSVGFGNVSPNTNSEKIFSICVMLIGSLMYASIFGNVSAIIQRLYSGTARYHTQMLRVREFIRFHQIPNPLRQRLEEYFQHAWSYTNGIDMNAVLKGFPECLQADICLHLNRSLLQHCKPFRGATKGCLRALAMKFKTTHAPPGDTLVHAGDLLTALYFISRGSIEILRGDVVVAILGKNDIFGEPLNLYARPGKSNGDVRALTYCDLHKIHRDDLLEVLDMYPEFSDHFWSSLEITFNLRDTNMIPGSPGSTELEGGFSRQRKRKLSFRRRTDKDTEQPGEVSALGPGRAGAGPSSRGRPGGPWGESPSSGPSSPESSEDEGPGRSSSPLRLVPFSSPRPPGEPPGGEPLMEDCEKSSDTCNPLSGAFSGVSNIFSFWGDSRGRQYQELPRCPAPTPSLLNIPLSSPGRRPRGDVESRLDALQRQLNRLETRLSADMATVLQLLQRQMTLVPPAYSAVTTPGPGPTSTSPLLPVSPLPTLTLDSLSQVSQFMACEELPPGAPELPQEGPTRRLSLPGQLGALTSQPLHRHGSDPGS
Sequence of Bile salt export pump (O95342 whole entry): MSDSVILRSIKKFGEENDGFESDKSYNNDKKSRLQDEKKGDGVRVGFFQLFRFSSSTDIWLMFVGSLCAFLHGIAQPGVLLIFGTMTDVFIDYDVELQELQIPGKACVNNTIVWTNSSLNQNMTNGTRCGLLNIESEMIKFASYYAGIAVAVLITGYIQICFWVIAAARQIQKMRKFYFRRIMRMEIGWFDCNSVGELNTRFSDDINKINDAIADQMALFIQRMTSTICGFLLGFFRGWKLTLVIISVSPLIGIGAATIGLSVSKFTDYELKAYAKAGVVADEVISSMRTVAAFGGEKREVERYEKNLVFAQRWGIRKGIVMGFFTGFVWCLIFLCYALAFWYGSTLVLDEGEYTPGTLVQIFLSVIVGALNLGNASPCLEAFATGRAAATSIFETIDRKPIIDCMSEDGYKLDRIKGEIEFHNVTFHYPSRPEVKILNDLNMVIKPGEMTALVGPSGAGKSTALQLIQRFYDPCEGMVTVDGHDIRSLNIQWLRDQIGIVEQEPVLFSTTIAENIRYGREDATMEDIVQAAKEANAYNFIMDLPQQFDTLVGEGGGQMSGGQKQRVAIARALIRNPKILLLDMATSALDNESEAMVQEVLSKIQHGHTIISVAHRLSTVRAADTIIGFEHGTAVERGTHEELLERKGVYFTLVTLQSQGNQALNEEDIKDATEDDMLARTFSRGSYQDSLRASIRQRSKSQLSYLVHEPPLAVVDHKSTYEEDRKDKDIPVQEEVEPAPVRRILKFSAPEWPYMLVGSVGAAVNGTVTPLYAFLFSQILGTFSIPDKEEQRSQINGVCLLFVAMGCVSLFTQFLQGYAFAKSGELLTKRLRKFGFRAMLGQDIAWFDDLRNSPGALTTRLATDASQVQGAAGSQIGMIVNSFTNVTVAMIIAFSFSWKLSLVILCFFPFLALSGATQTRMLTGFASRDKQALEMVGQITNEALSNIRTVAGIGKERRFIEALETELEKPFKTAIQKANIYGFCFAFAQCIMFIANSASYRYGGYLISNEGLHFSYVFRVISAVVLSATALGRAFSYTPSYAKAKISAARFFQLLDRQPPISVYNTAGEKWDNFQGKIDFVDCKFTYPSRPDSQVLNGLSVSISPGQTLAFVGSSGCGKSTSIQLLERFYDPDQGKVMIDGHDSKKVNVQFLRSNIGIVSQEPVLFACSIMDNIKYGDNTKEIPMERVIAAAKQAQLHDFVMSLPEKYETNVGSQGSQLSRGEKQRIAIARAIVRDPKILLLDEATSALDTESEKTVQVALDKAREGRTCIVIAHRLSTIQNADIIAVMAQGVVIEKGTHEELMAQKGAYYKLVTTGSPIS

COc1cc(F)c(O[C@H]2CC[C@@H](C(=O)O)CC2)cc1C(=O)N[C@@H]1[C@H]2CC[C@H](C2)[C@@H]1C(=O)Nc1cccc(S(=O)(=O)C(F)(F)F)c1
EC50 (Relaxin receptor 1 [1]): 0.0398 µM | hepatocyte CLint at 1 µM [2]: 23 µL/min/1e6 cells | hepatocyte CLint at 1 µM [3]: 15 µL/min/1e6 cells | EC50 (Relaxin receptor 1 [4]): 10 µM | half-life [5]: 1.2 h | logD at 3 h [6]: 3.5 | CL free [7]: 259 µL/min | fraction unbound at 18 h, 5 µM [8]: 0.011 | bioavailability [9]: 2.6% | Emax [10]: 102% | Vd [11]: 1.7 L/kg | Emax [12]: 43% | CL free [13]: 397 µL/min | clearance [14]: 76 mL/min/kg

CC(C)Oc1ccccc1C(=O)Nc1ccccc1C(=O)Nc1cccc(S(=O)(=O)C(F)(F)F)c1
hepatocyte CLint at 1 µM [2]: 22 µL/min/1e6 cells | hepatocyte CLint at 1 µM [3]: 12.6 µL/min/1e6 cells | logD at 3 h [6]: > 4 | bioavailability [15]: 40% | fraction unbound at 4 h, 1 µM [16]: 2e-05 | CL free [17]: 5.4 µL/min | CL free [18]: 37 10^3uL/min/mg | microsomal CLint at 1 µM [19]: 55 µL/min/mg | CL free [7]: 3.07 10^3uL/min | fraction unbound at 18 h, 5 µM [8]: < 0.0002 | solubility kinetic at 24 h [20]: 1 µM (≈ 0.507 µg/mL) | Vd [21]: 7.7 L/kg | clearance [22]: 30 mL/min/kg | half-life [23]: 4.3 h | fraction unbound at 4 h, 1 µM [24]: 4e-05 | Activity [25]: inactive

COc1cc(F)c(O[C@H]2CC[C@@](C)(C(=O)O)CC2)cc1C(=O)N[C@H]1[C@@H]2CC[C@@H](C2)[C@H]1C(=O)Nc1ccc(F)c(S(F)(F)(F)(F)F)c1
EC50 (Relaxin receptor 1 [1]): 3.98 µM | IC50 [26]: 34 µM | hepatocyte CLint at 1 µM [2]: 14 µL/min/1e6 cells | CLH ([3]; hepatocytes, 2 h, 1 µM): 49 µL/min/1e6 cells | IC50 [27]: 122 µM | EC50 (Relaxin receptor 1 [4]): 7.94 µM | logD at 3 h [6]: 4.5 | Activity [28]: inactive | CL free [17]: 2 µL/min | half-life [29]: 2.3 h | IC50 [30]: 33 µM | CL free [7]: 7 10^3uL/min | IC50 [31]: 134 µM | fraction unbound at 18 h, 5 µM [8]: 0.0013 | Emax [10]: 103% | IC50 (Bile salt export pump): 97 µM | clearance [32]: 14 mL/min/kg | Vd [33]: 1.5 L/kg | Emax [12]: 128% | fCmax [34]: 12 nM | IC50 at 48 h [35]: 11 µM | Activity [36]: inactive
